Measured values: ChEMBL document CHEMBL4052807 (Bioorg Med Chem Lett, 2017)
Converted amounts (≈) assume the structure as drawn.

Key:
[1] = Passive permeability in MDCK cells expressing human MDR1; assay type: ADME, cell-based, Canis lupus familiaris; settings: dog, read-out: permeability
[2] = Volume of distribution at steady state in Swiss albino mouse at 1 mg/kg, iv or 2 mg/kg, po; assay type: ADME, organism-based; settings: in vivo, read-out: Vdss
Mus musculus [3] = assay: Dose normalized AUC in Swiss albino mouse at 1 mg/kg, iv; assay type: ADME, organism-based; settings: in vivo
[4] = Oral bioavailability in Swiss albino mouse at 2 mg/kg; assay type: ADME, organism-based; settings: in vivo
[5] = Half life in Swiss albino mouse at 1 mg/kg, iv or 2 mg/kg, po; assay type: ADME, organism-based; settings: in vivo
[6] = Half life in Swiss albino mouse at 1 mg/kg, iv or 10 mg/kg, po; assay type: ADME, organism-based; settings: in vivo
[7] = Protein binding in mouse brain; assay type: ADME, tissue-based; settings: read-out: PB (converted)
Mus musculus [8] = assay: Volume of distribution at steady state in Swiss albino mouse at 1 mg/kg, iv or 10 mg/kg, po; assay type: ADME, organism-based; settings: in vivo
[9] = molecular target: T1, Leucine-rich repeat serine/threonine-protein kinase 2 (Homo sapiens, UniProt Q5S007); assay: Inhibition of LRRK2 (unknown origin) by HTRF assay
Liver = assay: Intrinsic clearance in human liver microsomes; assay type: ADME, microsome
SRSF protein kinase 3 [10] = molecular target: T2, SRSF protein kinase 3 (Homo sapiens, UniProt Q9UPE1); assay: Inhibition of human MSSK1 GRSRSRSRSR as substrate in presence of [gamma-33P]-ATP
[11] = Solubility of the compound; assay type: physicochemical
[12] = molecular target: T1, Leucine-rich repeat serine/threonine-protein kinase 2; assay: Inhibition of human LRRK2 using RLGRDKYKTLRQIRQ as substrate at 1uM in presence of [gamma-33P]-ATP
SRSF protein kinase 3 [13] = molecular target: T2, SRSF protein kinase 3; assay: Inhibition of human MSSK1 using GRSRSRSRSR as substrate at 1uM in presence of [gamma-33P]-ATP
[14] = Blood clearance in Swiss albino mouse at 1 mg/kg, iv or 2 mg/kg, po; assay type: ADME, organism-based; settings: whole blood
[15] = Ratio of drug level in Swiss albino mouse brain to blood at 1 mg/kg, iv or 2 mg/kg, po; assay type: ADME, organism-based

T1 sequence (Q5S007 whole entry): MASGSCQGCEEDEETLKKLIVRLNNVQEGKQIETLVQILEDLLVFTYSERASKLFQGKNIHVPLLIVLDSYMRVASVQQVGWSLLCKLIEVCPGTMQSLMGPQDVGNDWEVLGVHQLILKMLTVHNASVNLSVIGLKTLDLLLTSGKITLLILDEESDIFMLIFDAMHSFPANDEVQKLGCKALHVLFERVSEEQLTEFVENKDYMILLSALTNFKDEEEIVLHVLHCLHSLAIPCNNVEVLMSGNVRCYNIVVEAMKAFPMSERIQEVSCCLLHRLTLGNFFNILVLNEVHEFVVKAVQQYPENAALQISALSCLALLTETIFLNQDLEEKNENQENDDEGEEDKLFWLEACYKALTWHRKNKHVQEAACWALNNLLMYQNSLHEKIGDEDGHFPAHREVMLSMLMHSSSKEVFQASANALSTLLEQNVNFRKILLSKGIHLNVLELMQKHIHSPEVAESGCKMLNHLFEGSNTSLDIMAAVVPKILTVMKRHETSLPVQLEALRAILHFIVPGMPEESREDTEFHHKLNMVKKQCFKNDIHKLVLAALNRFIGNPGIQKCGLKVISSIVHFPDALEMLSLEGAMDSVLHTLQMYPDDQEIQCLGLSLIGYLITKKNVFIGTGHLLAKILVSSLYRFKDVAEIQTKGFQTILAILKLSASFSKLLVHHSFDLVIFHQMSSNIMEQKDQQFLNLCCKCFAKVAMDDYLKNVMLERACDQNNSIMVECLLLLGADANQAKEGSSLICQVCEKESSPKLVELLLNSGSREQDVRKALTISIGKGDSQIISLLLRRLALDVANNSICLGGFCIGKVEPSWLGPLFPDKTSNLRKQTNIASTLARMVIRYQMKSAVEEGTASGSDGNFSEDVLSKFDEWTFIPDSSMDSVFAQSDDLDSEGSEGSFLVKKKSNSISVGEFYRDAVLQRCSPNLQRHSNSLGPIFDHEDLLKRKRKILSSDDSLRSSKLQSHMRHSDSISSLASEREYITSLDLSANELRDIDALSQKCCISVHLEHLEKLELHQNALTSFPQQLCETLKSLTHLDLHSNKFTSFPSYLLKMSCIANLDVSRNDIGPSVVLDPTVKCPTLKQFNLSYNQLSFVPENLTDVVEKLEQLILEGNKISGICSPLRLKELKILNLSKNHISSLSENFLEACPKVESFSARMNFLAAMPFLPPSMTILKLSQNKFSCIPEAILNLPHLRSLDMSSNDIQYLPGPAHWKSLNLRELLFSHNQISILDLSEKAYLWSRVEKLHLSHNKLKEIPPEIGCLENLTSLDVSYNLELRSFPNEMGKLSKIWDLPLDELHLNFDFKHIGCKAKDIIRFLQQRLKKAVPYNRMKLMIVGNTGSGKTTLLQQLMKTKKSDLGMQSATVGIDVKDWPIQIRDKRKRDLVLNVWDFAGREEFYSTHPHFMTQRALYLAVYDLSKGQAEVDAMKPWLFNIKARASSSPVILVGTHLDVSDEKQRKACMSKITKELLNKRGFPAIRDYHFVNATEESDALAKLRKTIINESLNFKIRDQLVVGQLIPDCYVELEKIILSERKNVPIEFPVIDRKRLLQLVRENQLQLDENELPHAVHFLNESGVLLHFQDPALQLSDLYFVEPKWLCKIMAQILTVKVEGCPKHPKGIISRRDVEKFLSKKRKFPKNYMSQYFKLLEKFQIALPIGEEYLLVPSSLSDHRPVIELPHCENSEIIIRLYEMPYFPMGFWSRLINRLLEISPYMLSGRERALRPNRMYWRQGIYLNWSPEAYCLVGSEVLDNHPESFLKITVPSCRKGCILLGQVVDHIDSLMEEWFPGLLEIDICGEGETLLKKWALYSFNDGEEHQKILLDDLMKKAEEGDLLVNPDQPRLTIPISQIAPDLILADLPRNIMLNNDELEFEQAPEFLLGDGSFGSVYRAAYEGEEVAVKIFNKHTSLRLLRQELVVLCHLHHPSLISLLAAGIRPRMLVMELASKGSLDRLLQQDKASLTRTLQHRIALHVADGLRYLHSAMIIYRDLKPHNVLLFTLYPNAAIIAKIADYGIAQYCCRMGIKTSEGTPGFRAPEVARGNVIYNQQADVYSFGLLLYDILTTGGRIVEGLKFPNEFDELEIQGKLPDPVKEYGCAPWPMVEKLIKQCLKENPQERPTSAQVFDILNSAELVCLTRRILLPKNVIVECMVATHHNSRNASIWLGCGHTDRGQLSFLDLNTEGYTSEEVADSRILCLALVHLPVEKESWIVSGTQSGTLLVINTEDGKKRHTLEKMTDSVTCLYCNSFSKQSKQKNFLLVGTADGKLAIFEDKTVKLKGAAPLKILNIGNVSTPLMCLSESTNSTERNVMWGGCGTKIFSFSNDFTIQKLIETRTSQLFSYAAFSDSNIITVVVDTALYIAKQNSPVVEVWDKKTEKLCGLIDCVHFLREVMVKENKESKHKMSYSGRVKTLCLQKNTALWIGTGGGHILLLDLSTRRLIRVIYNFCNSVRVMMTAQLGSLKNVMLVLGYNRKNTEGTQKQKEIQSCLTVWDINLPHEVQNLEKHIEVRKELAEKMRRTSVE
T2 sequence (Q9UPE1 whole entry): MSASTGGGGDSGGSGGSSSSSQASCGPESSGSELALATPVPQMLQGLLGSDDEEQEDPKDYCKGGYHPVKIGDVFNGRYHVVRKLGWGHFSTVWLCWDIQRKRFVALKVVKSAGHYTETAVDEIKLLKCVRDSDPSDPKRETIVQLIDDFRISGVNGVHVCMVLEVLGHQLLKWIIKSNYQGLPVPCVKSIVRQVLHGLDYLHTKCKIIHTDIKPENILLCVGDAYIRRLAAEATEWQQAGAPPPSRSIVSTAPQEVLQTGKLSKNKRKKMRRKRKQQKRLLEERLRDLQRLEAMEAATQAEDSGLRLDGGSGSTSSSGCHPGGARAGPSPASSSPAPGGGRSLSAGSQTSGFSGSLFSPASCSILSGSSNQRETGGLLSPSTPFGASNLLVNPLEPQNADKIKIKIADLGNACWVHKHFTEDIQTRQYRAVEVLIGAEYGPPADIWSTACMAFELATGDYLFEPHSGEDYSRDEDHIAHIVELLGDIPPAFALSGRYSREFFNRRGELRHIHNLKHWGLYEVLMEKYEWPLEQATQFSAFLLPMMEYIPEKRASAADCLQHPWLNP

Row | SMILES | Papp [1] | Vd [2] | AUC/dose (Mus musculus [3]) | bioavailability [4] | half-life [5] | fraction unbound [7] | IC50 [9] | CLH (Liver) | solubility [11] | also measured
1 | Cn1cc(-c2ccc(OCc3ccc(F)cc3)c(C(=O)Nc3cccnc3)c2)cn1 | > 10 ×10⁻⁶ cm/s | 1.6 L/kg | 253 ng·h/mL/mg/kg | 10% | 0.4 h | – | – | – | – | –
2 | O=C(Nc1cccnc1)c1cc(-c2ccnc(F)c2)ccc1OCc1ccccc1 | > 10 ×10⁻⁶ cm/s | – | 520 ng·h/mL/mg/kg | – | – | 0.003 | 0.01 µM | 1.2 mL/min/g | – | half-life [6]: 1.1 h; Vdss (Mus musculus [8]): 2.3 L/kg
3 | O=C(Nc1cccnc1)c1cc(C(F)(F)F)ccc1OCc1ccc(F)cc1 | > 10 ×10⁻⁶ cm/s | 2.7 L/kg | 597 ng·h/mL/mg/kg | 91.6% | 1.2 h | 0.004 | – | 0.8 mL/min/g | 11 µM (≈ 4.29 µg/mL) | IC50 (SRSF protein kinase 3 [10]): 0.158 µM; inhibition [12]: > 40%; inhibition (SRSF protein kinase 3 [13]): > 40%; clearance [14]: 27.7 mL/min/kg; Kp [15]: 1.3
4 | O=C(Nc1cccnc1)c1cc(Br)ccc1OCc1ccccc1F | – | – | – | – | – | – | 0.00794 µM | – | – | –

Second part, led by results:

Row | Papp [1] | Vd [2] | AUC/dose (Mus musculus [3]) | bioavailability [4] | half-life [5] | fraction unbound [7] | IC50 [9] | CLH (Liver) | solubility [11] | SMILES | also measured
5 | – | – | – | – | – | – | 0.0158 µM | – | – | O=C(Nc1cccnc1)c1cc(Br)ccc1OCc1cccc(F)c1 | –
6 | – | – | – | – | – | – | 0.0126 µM | 2.8 mL/min/g | < 1 µM | O=C(Nc1cccnc1)c1cc(Br)ccc1OCc1ccccc1 | –
